{"source": "patent US8476448B2", "about": "“Solid form of 4-[[(6-chloropyridin-3-yl)methyl](2,2-difluoroethyl)amino]furan-2(5H)-one” (Bayer Cropscience AG, priority 2009, dated 2013)", "assay": "Stability of the novel solid form on prolonged storage", "assay_type": "physicochemical", "data": [{"smiles": "O=C1C=C(N(Cc2ccc(Cl)nc2)CC(F)F)CO1", "note": "[novel solid form, 4-[[(6-chloropyridin-3-yl)methyl](2,2-difluoroethyl)amino]furan-2(5H)-one]", "values": [{"measurement": "thermodynamic stability / conversion into another form", "value": "not converted into another form"}]}]}
